One may read the EC50 as the midpoint of the concentration-response curve.

14 compounds from patent publication US9499550B2 (BRISTOL-MYERS SQUIBB COMPANY, priority 2012, dated 2016) can be followed below.

The test system of test [1] is HCV genotype 1a (H77 strain) replicon in HUH-7 cells. Description: HCV replicon luciferase reporter assay, genotype 1a. The class given is cell-based. To be noted: Hepatitis C virus, Huh-7, 72 h, HCV genotype 1a replicon luciferase, 3 days incubation. In outline: (§1)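 Replicon inhibition for both genotypes was measured as Renilla luciferase signal (EnduRen, 7.5 μM final, 2 h) after 3-day, 37° C exposure of replicon-bearing HUH-7 cells in 4% FCS DMEM, 0.5% DMSO. The 1b construct carries S1179I; the 1a H77 construct carries P1496L and S2204I. Twenty-point, 3-fold dilutions were fitted four-parametrically for EC50, and CC50 was taken from multiplexed Cell Titer-Blue.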
(A replicon is a self-replicating genome or part of one, used to study replication in cells.)

Test [2] concerns HCV genotype 1b (Con1) replicon in HUH-7 cells. Description: HCV replicon luciferase reporter assay, genotype 1b. The class given is cell-based. To be noted: Hepatitis C virus, Huh-7, 72 h, HCV genotype 1b replicon luciferase, 3 days incubation. A digest of the protocol:
as §1

Each structure is given as a SMILES string. Read-outs that look alike come from different tables or passages of the source. Some results are limits rather than exact numbers.

On to `[2H]C([2H])([2H])C(C)(OC(=O)N[C@@H]1C(=O)N2C[C@H](Oc3nnc(OC)c4ccccc34)C[C@H]2C(=O)N[C@]2(C(=O)NS(=O)(=O)C3(C)CC3)C[C@H]2/C=C\CC[C@@H](C)C[C@H]1CC)C([2H])([2H])[2H]` [Compound 5022], for which the EC50 in test [1] (read-out: LE_1a (EC50, range)) was below 5.46 nM; in test [2] (read-out: LE_1b (EC50, range)) it was below 5.46 nM.

For the compound `CC[C@@H]1C[C@@H](C)CC/C=C\[C@@H]2C[C@@]2(C(=O)NS(=O)(=O)C2(C)CC2)NC(=O)[C@@H]2C[C@@H](Oc3nnc(OC)c4ccccc34)CN2C(=O)[C@H]1NC(=O)NC(C)(C)C` [Compound 5023, (2R,6S,7R,9S,13aS,14aR,16aS,Z)-6-(3-(tert-butyl)ureido)-7-ethyl-2-((4-methoxyphthalazin-1-yl)oxy)-9-methyl-N-((1-methylcyclopropyl)sulfonyl)-5,16-dioxo-1,2,3,5,6,7,8,9,10,11,13a,14,14a,15,16,16a-hexadecahydrocyclopropa[e]pyrrolo[1,2-a][1,4]diazacyclopentadecine-14a-carboxamide], the EC50 in test [1] (read-out: LE_1a (EC50)) was 16 nM; in test [1] (read-out: LE_1a (EC50, range)), 4.82 to 103 nM; in test [2] (read-out: LE_1b (EC50)), 24.6 nM; in test [2] (read-out: LE_1b (EC50, range)), 4.82 to 103 nM.

As to `CC[C@@H]1C[C@H](C)CC/C=C\[C@@H]2C[C@@]2(C(=O)NS(=O)(=O)C2(C)CC2)NC(=O)[C@@H]2C[C@@H](Oc3nnc(OC)c4ccccc34)CN2C(=O)[C@H]1NC(=O)NC(C)(C)C` [Compound 5024, (2R,6S,7R,9R,13aS,14aR,16aS,Z)-6-(3-(tert-butyl)ureido)-7-ethyl-2-((4-methoxyphthalazin-1-yl)oxy)-9-methyl-N-((1-methylcyclopropyl)sulfonyl)-5,16-dioxo-1,2,3,5,6,7,8,9,10,11,13a,14,14a,15,16,16a-hexadecahydrocyclopropa[e]pyrrolo[1,2-a][1,4]diazacyclopentadecine-14a-carboxamide], the EC50 is below 5.46 nM in test [1] (read-out: LE_1a (EC50, range)) and below 5.46 nM in test [2] (read-out: LE_1b (EC50, range)).

Consider `CC[C@@H]1C[C@@H](C)CC/C=C\[C@@H]2C[C@@]2(C(=O)NS(=O)(=O)C2(C)CC2)NC(=O)[C@@H]2C[C@@H](Oc3nnc(OC)c4ccccc34)CN2C(=O)[C@H]1NC(=O)OC(C)(C)C` [Compound 5025, tert-butyl ((2R,6S,7R,9S,13aS,14aR,16aS,Z)-7-ethyl-2-((4-methoxyphthalazin-1-yl)oxy)-9-methyl-14a-(((1-methylcyclopropyl)sulfonyl)carbamoyl)-5,16-dioxo-1,2,3,5,6,7,8,9,10,11,13a,14,14a,15,16,16a-hexadecahydrocyclopropa[e]pyrrolo[1,2-a][1,4]diazacyclopentadecin-6-yl)carbamate], for which the EC50 was 4.82 to 103 nM in test [1] (read-out: LE_1a (EC50, range)) and below 5.46 nM in test [2] (read-out: LE_1b (EC50, range)).

Regarding `CC[C@@H]1C[C@H](C)CC/C=C\[C@@H]2C[C@@]2(C(=O)NS(=O)(=O)C2(C)CC2)NC(=O)[C@@H]2C[C@@H](Oc3nnc(OC)c4ccccc34)CN2C(=O)[C@H]1NC(=O)OC(C)(C)C` [Compound 5026, tert-butyl ((2R,6S,7R,9R,13aS,14aR,16aS,Z)-7-ethyl-2-((4-methoxyphthalazin-1-yl)oxy)-9-methyl-14a-(((1-methylcyclopropyl)sulfonyl)carbamoyl)-5,16-dioxo-1,2,3,5,6,7,8,9,10,11,13a,14,14a,15,16,16a-hexadecahydrocyclopropa[e]pyrrolo[1,2-a][1,4]diazacyclopentadecin-6-yl)carbamate], the EC50 was below 5.46 nM in test [1] (read-out: LE_1a (EC50, range)) and below 5.46 nM in test [2] (read-out: LE_1b (EC50, range)).

Regarding `COc1nnc(O[C@@H]2C[C@H]3C(=O)N[C@]4(C(=O)NS(=O)(=O)C5(CF)CC5)C[C@H]4/C=C\CC[C@@H](C)C[C@@H](C)[C@H](NC(=O)OC(C)(C)C(F)(F)F)C(=O)N3C2)c2ccccc12` [Compound 5027], the EC50 is below 5.46 nM in test [1] (GETYPE1A, read-out: LE_1a (EC50, range)) and below 5.46 nM in test [2] (GETYPE1B, read-out: LE_1b (EC50, range)).

For the compound `CCOc1nnc(O[C@@H]2C[C@H]3C(=O)N[C@]4(C(=O)NS(=O)(=O)C5(C)CC5)C[C@H]4/C=C\CC[C@H](C)C[C@@H](C)[C@H](NC(=O)OC(C)(C)C)C(=O)N3C2)c2ccccc12` [Compound 5028, tert-butyl ((2R,6S,7R,9S,13aS,14aR,16aS,Z)-2-((4-ethoxyphthalazine-1-yl)oxy)-7,9-dimethyl-14a-(((1-methylcyclopropyl)sulfonyl)carbamoyl)-5,16-dioxo-1,2,3,5,6,7,8,9,10,11,13a,14,14a,15,16,16a-hexadecahydrocyclopropa[e]pyrrolo[1,2-a][1,4]diazacyclopentadecin-6-yl)carbamate], the EC50 in test [1] (read-out: LE_1a (EC50)) is 6.28 nM; in test [1] (read-out: LE_1a (EC50, range)), 4.82 to 103 nM; in test [2] (read-out: LE_1b (EC50)), 2.96 nM; in test [2] (read-out: LE_1b (EC50, range)), below 5.46 nM.

Consider `CCOc1nnc(O[C@@H]2C[C@H]3C(=O)N[C@]4(C(=O)NS(=O)(=O)C5(C)CC5)C[C@H]4/C=C\CC[C@@H](C)C[C@@H](C)[C@H](NC(=O)OC(C)(C)C)C(=O)N3C2)c2ccccc12` [Compound 5029, tert-butyl ((2R,6S,7R,9R,13aS,14aR,16aS,Z)-2-((4-ethoxyphthalazin-1-yl)oxy)-7,9-dimethyl-14a-(((1-methylcyclopropyl)sulfonyl)carbamoyl)-5,16-dioxo-1,2,3,5,6,7,8,9,10,11,13a,14,14a,15,16,16a-hexadecahydrocyclopropa[e]pyrrolo[1,2-a][1,4]diazacyclopentadecin-6-yl)carbamate], for which the EC50 in test [1] (read-out: LE_1a (EC50, range)) is below 5.46 nM; in test [2] (read-out: LE_1b (EC50, range)), below 5.46 nM.

For `CCOc1nnc(O[C@@H]2C[C@H]3C(=O)N[C@]4(C(=O)NS(=O)(=O)C5(C)CC5)C[C@H]4/C=C\CC[C@H](C)C[C@@H](C)[C@H](NC(=O)OC(C)(C)C(F)(F)F)C(=O)N3C2)c2ccccc12` [Compound 5030, 1,1,1-trifluoro-2-methylpropan-2-yl((2R,6S,7R,9S,13aS,14aR,16aS,Z)-2-((4-ethoxyphthalazin-1-yl)oxy)-7,9-dimethyl-14a-(((1-methylcyclopropyl)sulfonyl)carbamoyl)-5,16-dioxo-1,2,3,5,6,7,8,9,10,11,13a,14,14a,15,16,16a-hexadecahydrocyclopropa[e]pyrrolo[1,2-a][1,4]diazacyclopentadecin-6-yl)carbamate], the EC50 in test [1] (read-out: LE_1a (EC50, range)) is 4.82 to 103 nM; in test [2] (read-out: LE_1b (EC50, range)), 4.82 to 103 nM.

On to `CCOc1nnc(O[C@@H]2C[C@H]3C(=O)N[C@]4(C(=O)NS(=O)(=O)C5(C)CC5)C[C@H]4/C=C\CC[C@@H](C)C[C@@H](C)[C@H](NC(=O)OC(C)(C)C(F)(F)F)C(=O)N3C2)c2ccccc12` [Compound 5031, 1,1,1-trifluoro-2-methylpropan-2-yl((2R,6S,7R,9R,13aS,14aR,16aS,Z)-2-((4-ethoxyphthalazin-1-yl)oxy)-7,9-dimethyl-14a-(((1-methylcyclopropyl)sulfonyl)carbamoyl)-5,16-dioxo-1,2,3,5,6,7,8,9,10,11,13a,14,14a,15,16,16a-hexadecahydrocyclopropa[e]pyrrolo[1,2-a][1,4]diazacyclopentadecin-6-yl)carbamate], for which the EC50 in test [1] (read-out: LE_1a (EC50, range)) was below 5.46 nM; in test [2] (read-out: LE_1b (EC50, range)), below 5.46 nM.

Consider `[2H]C([2H])([2H])C(OC(=O)N[C@@H]1C(=O)N2C[C@H](Oc3nnc(OCC)c4ccccc34)C[C@H]2C(=O)N[C@]2(C(=O)NS(=O)(=O)C3(C)CC3)C[C@H]2/C=C\CC[C@H](C)C[C@H]1C)(C([2H])([2H])[2H])C(F)(F)F` [Compound 5032], for which the EC50 in test [1] (read-out: LE_1a (EC50, range)) lay within 4.82 to 103 nM; in test [2] (read-out: LE_1b (EC50, range)), 4.82 to 103 nM.

On to `[2H]C([2H])([2H])C(OC(=O)N[C@@H]1C(=O)N2C[C@H](Oc3nnc(OCC)c4ccccc34)C[C@H]2C(=O)N[C@]2(C(=O)NS(=O)(=O)C3(C)CC3)C[C@H]2/C=C\CC[C@@H](C)C[C@H]1C)(C([2H])([2H])[2H])C(F)(F)F` [Compound 5033], for which the EC50 is below 5.46 nM in test [1] (read-out: LE_1a (EC50, range)) and below 5.46 nM in test [2] (read-out: LE_1b (EC50, range)).

In the case of `CCOc1nnc(O[C@@H]2C[C@H]3C(=O)N[C@]4(C(=O)NS(=O)(=O)C5CC5)C[C@H]4/C=C\CC[C@H](C)C[C@@H](C)[C@H](NC(=O)OC(C)(C)C)C(=O)N3C2)c2ccccc12` [Compound 5034, tert-butyl ((2R,6S,7R,9S,13aS,14aR,16aS,Z)-14a-((cyclopropylsulfonyl)carbamoyl)-2-((4-ethoxyphthalazin-1-yl)oxy)-7,9-dimethyl-5,16-dioxo-1,2,3,5,6,7,8,9,10,11,13a,14,14a,15,16,16a-hexadecahydrocyclopropa[e]pyrrolo[1,2-a][1,4]diazacyclopentadecin-6-yl)carbamate], the EC50 was 4.82 to 103 nM in test [1] (read-out: LE_1a (EC50, range)) and 4.82 to 103 nM in test [2] (read-out: LE_1b (EC50, range)).

`CCOc1nnc(O[C@@H]2C[C@H]3C(=O)N[C@]4(C(=O)NS(=O)(=O)C5CC5)C[C@H]4/C=C\CC[C@@H](C)C[C@@H](C)[C@H](NC(=O)OC(C)(C)C)C(=O)N3C2)c2ccccc12` [Compound 5035, tert-butyl ((2R,6S,7R,9R,13aS,14aR,16aS,Z)-14a-((cyclopropylsulfonyl)carbamoyl)-2-((4-ethoxyphthalazin-1-yl)oxy)-7,9-dimethyl-5,16-dioxo-1,2,3,5,6,7,8,9,10,11,13a,14,14a,15,16,16a-hexadecahydrocyclopropa[e]pyrrolo[1,2-a][1,4]diazacyclopentadecin-6-yl)carbamate]: the EC50 in test [1] (read-out: LE_1a (EC50, range)) was below 5.46 nM; in test [2] (read-out: LE_1b (EC50, range)), below 5.46 nM.
